19 compounds from patent US9567345B2, “Pharmaceutically active pyrazolo-triazine derivatives” (LEAD DISCOVERY CENTER GMBH, priority 2012, dated 2017) can be followed below.

Holding throughout (format): biochemical
Experiment [1] addresses T1, CDK2/CycA (Homo sapiens, UniProt P24941).
T1 construct: purchased Proqinase
Kind of experiment: CDK2 Enzymatic Activity Assay (Lance Kinase Activity Assay, FRET). The conditions noted are these: Table 5B, class symbols per IC50 [nM] ranges of b581; read-out: CDK2: Selectivity of CDK7 inhibition over CDK2 inhibition. In a few lines: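 LANCE TR-FRET assay: CDK2/CycA phosphorylated ULight-MBP peptide in HEPES 50 mM pH 7.5 buffer with MgCl2, EGTA, DTT and Tween-20 for 1 h at room temperature. Eu-anti-phospho-MBP antibody with EDTA was then added for 1 h before reading. IC50 was fitted from 8-point, 1:3 sigmoidal dose-response curves.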

For experiment [2], the target named is CDK7/CycH/Mat1 (Homo sapiens, UniProt P50613). Kind of experiment: CDK7 Enzymatic Activity Assay (Lance Kinase Activity Assay, FRET). The settings on record: CDK7/CycH/Mat1, 25 μM ATP final; class ranges; read-out: CDK7: IC50 [nM] for CDK7 inhibition. In outline: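 Ulight-MBP peptide phosphorylation by CDK7/CycH/Mat1 in HEPES 50 mM pH 7.5, MgCl2, EGTA, DTT, Tween-20; 1 h at room temperature, then EDTA stop with Eu-anti-phospho-MBP antibody for 1 h and TR-FRET read. Compounds in 8-point 1:3 DMSO series; IC50 from sigmoidal dose-response fit.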
CDK7/CycH/Mat1, sequence (P50613 whole entry): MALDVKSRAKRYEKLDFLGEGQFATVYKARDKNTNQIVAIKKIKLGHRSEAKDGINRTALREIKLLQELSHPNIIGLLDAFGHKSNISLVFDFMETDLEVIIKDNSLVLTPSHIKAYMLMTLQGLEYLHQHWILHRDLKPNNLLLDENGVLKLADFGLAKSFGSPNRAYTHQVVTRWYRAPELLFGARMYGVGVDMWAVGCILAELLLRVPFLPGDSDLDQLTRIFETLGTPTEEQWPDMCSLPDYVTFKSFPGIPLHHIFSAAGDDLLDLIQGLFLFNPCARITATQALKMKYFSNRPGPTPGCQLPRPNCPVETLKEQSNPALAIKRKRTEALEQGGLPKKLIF

Experiment [3] addresses CDK9/Cyclin T1 (Homo sapiens, UniProt P50750). Kind of experiment: CDK9 Enzymatic Activity Assay (Lance Kinase Activity Assay, FRET). The conditions noted are these: Table 5B, class symbols per IC50 [nM] ranges of b581; read-out: CDK9: Selectivity of CDK7 inhibition over CDK9 inhibition. In outline: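 CDK9/cyclin T1 phosphorylation of a ULight-MBP peptide was run for 1 h at room temperature in pH 7.5 HEPES buffer with MgCl2, EGTA, DTT and Tween-20. It was followed by 1 h with Eu-anti-phospho-MBP antibody (4 nM) in EDTA detection buffer. TR-FRET loss gave IC50 from 8-point, 1:3 sigmoidal dose-response curves.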

CDK9/Cyclin T1, sequence (P50750 whole entry): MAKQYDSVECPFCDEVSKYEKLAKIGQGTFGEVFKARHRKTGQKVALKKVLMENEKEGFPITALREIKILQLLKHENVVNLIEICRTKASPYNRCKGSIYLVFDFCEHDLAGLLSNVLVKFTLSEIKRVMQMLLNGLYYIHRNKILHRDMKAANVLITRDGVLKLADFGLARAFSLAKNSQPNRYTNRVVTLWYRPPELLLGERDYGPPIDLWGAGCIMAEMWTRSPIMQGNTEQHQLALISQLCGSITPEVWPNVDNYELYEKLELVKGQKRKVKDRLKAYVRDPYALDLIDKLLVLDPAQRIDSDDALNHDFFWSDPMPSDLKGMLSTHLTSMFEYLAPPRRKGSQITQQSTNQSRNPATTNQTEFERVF
CDK9/Cyclin T1, sequence (O60563 whole entry partner): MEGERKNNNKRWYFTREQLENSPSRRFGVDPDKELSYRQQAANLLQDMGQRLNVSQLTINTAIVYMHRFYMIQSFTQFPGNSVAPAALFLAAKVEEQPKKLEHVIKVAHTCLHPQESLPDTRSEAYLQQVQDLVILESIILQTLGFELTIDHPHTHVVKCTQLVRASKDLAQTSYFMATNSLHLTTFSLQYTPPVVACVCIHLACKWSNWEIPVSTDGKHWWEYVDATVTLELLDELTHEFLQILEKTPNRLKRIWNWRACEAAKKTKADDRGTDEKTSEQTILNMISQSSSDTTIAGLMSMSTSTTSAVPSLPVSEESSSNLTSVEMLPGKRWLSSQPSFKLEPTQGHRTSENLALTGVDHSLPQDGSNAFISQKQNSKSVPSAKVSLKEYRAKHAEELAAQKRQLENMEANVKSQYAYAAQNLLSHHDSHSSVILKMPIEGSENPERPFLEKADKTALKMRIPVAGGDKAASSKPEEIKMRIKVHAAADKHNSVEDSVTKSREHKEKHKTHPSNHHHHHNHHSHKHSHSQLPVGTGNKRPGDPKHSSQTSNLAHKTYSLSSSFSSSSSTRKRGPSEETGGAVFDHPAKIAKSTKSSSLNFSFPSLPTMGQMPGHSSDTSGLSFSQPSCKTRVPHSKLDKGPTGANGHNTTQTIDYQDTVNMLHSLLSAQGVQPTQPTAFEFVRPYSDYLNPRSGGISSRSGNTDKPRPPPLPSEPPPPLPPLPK

For `CC(C)c1cnn2c(NCc3ccccc3-n3cccn3)nc(N(C)CCCN3CCCCC3)nc12` [(VIII-049), N4-(2-(1H-pyrazol-1-yl)benzyl)-8-isopropyl-N2-methyl-N2-(3-(piperidin-1-yl)propyl)pyrazolo[1,5-a][1,3,5]triazine-2,4-diamine], the IC50 in experiment [1] was over 2500 nM; in experiment [2] it was over 25 nM; in experiment [3], over 2500 nM.

With `CC(C)c1cnn2c(NCc3ccccc3-n3cccn3)nc(N3CC4CCNC4C3)nc12` (stereo not drawn) [(VIII-050), N-(2-(1H-pyrazol-1-yl)benzyl)-2-(hexahydropyrrolo[3,4-b]pyrrol-5(1H)-yl)-8-isopropylpyrazolo[1,5-a][1,3,5]triazin-4-amine], the IC50 is over 2500 nM in experiment [1], 10 to 25 nM in experiment [2] and over 2500 nM in experiment [3].

`CC(C)c1cnn2c(NCc3ccccc3-n3cccn3)nc(NCCN)nc12` [(VIII-051), N4-(2-(1H-pyrazol-1-yl)benzyl)-N2-(2-aminoethyl)-8-isopropylpyrazolo[1,5-a][1,3,5]triazine-2,4-diamine]: the IC50 in experiment [1] is 500 to 2500 nM; in experiment [2], 5 to 10 nM; in experiment [3], over 2500 nM.

For `CC(C)c1cnn2c(NCc3ccccc3-n3cccn3)nc(NCC3CCNC3)nc12` (stereo not drawn) [(VIII-052), N4-(2-(1H-pyrazol-1-yl)benzyl)-8-isopropyl-N2-(pyrrolidin-3-ylmethyl)pyrazolo[1,5-a][1,3,5]triazine-2,4-diamine], the results for the IC50 in experiment [1], in experiment [2] and in experiment [3] were over 2500 nM, over 25 nM and over 2500 nM, respectively.

For the compound `CC(C)c1cnn2c(NCc3ccccc3-n3cccn3)nc(N3CCCC(N)C3)nc12` (stereo not drawn) [(VIII-053), N-(2-(1H-pyrazol-1-yl)benzyl)-2-(3-aminopiperidin-1-yl)-8-isopropylpyrazolo[1,5-a][1,3,5]triazin-4-amine], the IC50 was over 2500 nM in experiment [1], over 25 nM in experiment [2] and over 2500 nM in experiment [3].

As to `CC(C)c1cnn2c(NCc3ccccc3-n3cccn3)nc(N3CCC(N)C3)nc12` (stereo not drawn) [(VIII-054), N-(2-(1H-pyrazol-1-yl)benzyl)-2-(3-aminopyrrolidin-1-yl)-8-isopropylpyrazolo[1,5-a][1,3,5]triazin-4-amine], the figures for the IC50 in experiment [1], in experiment [2] and in experiment [3] were over 2500 nM, over 25 nM and over 2500 nM, respectively.

In the case of `COC(=O)C(CN)Nc1nc(NCc2ccccc2-n2cccn2)n2ncc(C(C)C)c2n1` (stereo not drawn) [(VIII-055), methyl 2-((4-((2-(1H-pyrazol-1-yl)benzyl)amino)-8-isopropylpyrazolo[1,5-a][1,3,5]triazin-2-yl)amino)-3-aminopropanoate], the IC50 in experiment [1] is over 2500 nM; in experiment [2], over 25 nM; in experiment [3], over 2500 nM.

`CC(C)c1cnn2c(NCc3ccccc3-n3cccn3)nc([S+]([O-])C3CCNCC3)nc12` (stereo not drawn) [(X-1), N-(2-(1H-pyrazol-1-yl)benzyl)-8-isopropyl-2-(piperidin-4-ylsulfinyl)pyrazolo[1,5-a][1,3,5]triazin-4-amine]: the IC50 in experiment [1] is 50 to 500 nM; in experiment [2], under 5 nM; in experiment [3] it was 500 to 2500 nM.

`CC(C)c1cnn2c(NCc3ccccc3-c3cccs3)nc([S+]([O-])C3CCNCC3)nc12` (stereo not drawn) [(X-2), 8-isopropyl-2-(piperidin-4-ylsulfinyl)-N-(2-(thiophen-2-yl)benzyl)pyrazolo[1,5-a][1,3,5]triazin-4-amine]: the IC50 in experiment [1] was 50 to 500 nM; in experiment [2], under 5 nM; in experiment [3], 50 to 500 nM.

`CC(C)c1cnn2c(NCc3ccccc3-c3ccccc3)nc([S+]([O-])C3CCNCC3)nc12` (stereo not drawn) [(X-3), N-([1,1′-biphenyl]-2-ylmethyl)-8-isopropyl-2-(piperidin-4-ylsulfinyl)pyrazolo[1,5-a][1,3,5]triazin-4-amine]: the IC50 in experiment [1] is 500 to 2500 nM; in experiment [2], 10 to 25 nM; in experiment [3], over 2500 nM.

As for `CC(C)c1cnn2c(NCc3ccccc3-n3cncn3)nc([S+]([O-])C3CCNCC3)nc12` (stereo not drawn) [(X-4), N-(2-(1H-1,2,4-triazol-1-yl)benzyl)-8-isopropyl-2-(piperidin-4-ylsulfinyl)pyrazolo[1,5-a][1,3,5]triazin-4-amine], the results for the IC50 in experiment [1], in experiment [2] and in experiment [3] were 50 to 500 nM, under 5 nM and 500 to 2500 nM, respectively.

Consider `Cc1nccn1-c1ccccc1CNc1nc([S+]([O-])C2CCNCC2)nc2c(C(C)C)cnn12` (stereo not drawn) [(X-5), 8-isopropyl-N-(2-(2-methyl-1H-imidazol-1-yl)benzyl)-2-(piperidin-4-ylsulfinyl)pyrazolo[1,5-a][1,3,5]triazin-4-amine], for which the IC50 in experiment [1] is 500 to 2500 nM; in experiment [2] it was under 5 nM; in experiment [3], over 2500 nM.

Consider `CC(C)c1cnn2c(NCc3ccccc3-n3cccn3)nc(S(=O)(=O)C3CCNCC3)nc12` [(X-7), N-(2-(1H-pyrazol-1-yl)benzyl)-8-isopropyl-2-(piperidin-4-ylsulfonyl)pyrazolo[1,5-a][1,3,5]triazin-4-amine], for which the IC50 is over 2500 nM in experiment [1], under 5 nM in experiment [2] and over 2500 nM in experiment [3].

With `CC(C)c1cnn2c(NCc3ccccc3-n3cccn3)nc(S[C@@H]3CCCNC3)nc12` [(X-8), (R)-N-(2-(1H-pyrazol-1-yl)benzyl)-8-isopropyl-2-(piperidin-3-ylthio)pyrazolo[1,5-a][1,3,5]triazin-4-amine], the IC50 was 50 to 500 nM in experiment [1], under 5 nM in experiment [2] and over 2500 nM in experiment [3].

With `CC(C)c1cnn2c(NCc3ccccc3-n3cccn3)nc(SC3CCNCC3)nc12` [(X-9), N-(2-(1H-pyrazol-1-yl)benzyl)-8-isopropyl-2-(piperidin-4-ylthio)pyrazolo[1,5-a][1,3,5]triazin-4-amine], the IC50 in experiment [1] is over 2500 nM; in experiment [2], 10 to 25 nM; in experiment [3], over 2500 nM.

`CC(C)c1cnn2c(NCc3ccccc3-n3cccn3)nc(C(=O)NCC3CCNCC3)nc12` [(XII-1), 4-((2-(1H-pyrazol-1-yl)benzyl)amino)-8-isopropyl-N-(piperidin-4-ylmethyl)pyrazolo[1,5-a][1,3,5]triazine-2-carboxamide]: the IC50 in experiment [1] was over 2500 nM; in experiment [2], under 5 nM; in experiment [3] it was over 2500 nM.

For the compound `CC(C)c1cnn2c(NCc3ccccc3-n3cccn3)nc(C(=O)NCC3CNC3)nc12` [(XII-2), 4-((2-(1H-pyrazol-1-yl)benzyl)amino)-N-(azetidin-3-ylmethyl)-8-isopropylpyrazolo[1,5-a][1,3,5]triazine-2-carboxamide], the IC50 in experiment [1] was over 2500 nM; in experiment [2], under 5 nM; in experiment [3], over 2500 nM.

Take `CC(C)c1cnn2c(NCc3ccccc3-n3cccn3)nc(C(=O)NCC3CCNC3)nc12` (stereo not drawn) [(XII-3), 4-((2-(1H-pyrazol-1-yl)benzyl)amino)-8-isopropyl-N-(pyrrolidin-3-ylmethyl)pyrazolo[1,5-a][1,3,5]triazine-2-carboxamide]: the IC50 in experiment [1] is over 2500 nM; in experiment [2], under 5 nM; in experiment [3], over 2500 nM.

As to `CC(C)c1cnn2c(NCc3ccccc3-n3cccn3)nc(C(=O)NCC3CCCNC3)nc12` (stereo not drawn) [(XII-4), 4-((2-(1H-pyrazol-1-yl)benzyl)amino)-8-isopropyl-N-(piperidin-3-ylmethyl)pyrazolo[1,5-a][1,3,5]triazine-2-carboxamide], the IC50 was over 2500 nM in experiment [1], under 5 nM in experiment [2] and over 2500 nM in experiment [3].
